Measured values reported in article PMC10184313, “Inhibition of Thiamine Diphosphate-Dependent Enzymes by Triazole-Based Thiamine Analogues” (ACS Medicinal Chemistry Letters, 2023).
Read-outs that look alike come from different tables or passages of the source.

Legend:
[1] = in vitro; assay type: cell-based, human; conditions: human
Protocol: Cell-based assays (Results)
Anti-plasmodial activity assay. This study used human malaria parasite P. falciparum strain 3D7 (chloroquine-sensitive) and the same strain expressing an extra copy of TPK with a GFP-tag ( PfTPK-GFP) generated as previously described. 9 The intraerythrocytic stage of the parasites were maintained essentially as previously described. 10 Compounds were tested at concentrations up to a highest final […]
were prepared in dimethyl sulfoxide (DMSO) followed by dilution in RPMI 1640 medium in the absence of thiamine or in the presence of 2.97 µM (or 297 µM) thiamine. The final concentration of DMSO that the parasites were exposed to never exceeded 0.05%. Two-fold serial dilutions were then performed, with each concentration tested in triplicate. The assay was performed as described 11 with some modifications. Experiments were initiated with parasites in the ring-stage, a parasitemia level of 0.5% and a haematocrit of 2%. Chloroquine (0.5 µM) was used as the positive control ( i.e. complete inhibition of parasite proliferation), and parasites maintained in the absence of any inhibitor represented 100% parasite proliferation. The final volume in each well was 200 µL. Plates were incubated at 37 °C, under an atmosphere of 96% nitrogen, 3% carbon dioxide and 1% oxygen. Parasite proliferation was measured by performing SYBR-Safe assay. 12 The concentration at which the compound suppresses […]
Excel and analysed by non-linear regression plot using GraphPad Prism. The data were averaged from three independent experiments.
Cytotoxicity assay. This study used HFF cells (human foreskin fibroblasts) as described 13 with some modifications. The HFF cells were seeded in 96-well plates at a density of about 13 x 10^4 cells/mL.
Plates were incubated at 37 °C in a humidified 5% carbon dioxide incubator for 96 h. A sample of the supernatant (150 µL) was then carefully aspirated from each well and discarded. The plates were then stored at -80 °C. SYBR- Safe assay was used. The plates were thawed, SYBR-Safe lysis solution (150 µL) was added to each well and mixed via pipetting to ensure the HFF cells were detached from the plate and lysed. The plates were then processed as described for the anti-plasmodial assay.

[2] = target: T1, S. cerevisiae PDC (Saccharomyces cerevisiae, UniProt P06169); experiment: S. cerevisiae PDC inhibitory activity assay (DCPIP reduction); assay type: biochemical; conditions: compounds insufficiently soluble were excluded; for inhibition at 1500 µM: read-out: Inhibition (%) Yeast PDC
T1 construct: purchased Sigma
T1 sequence (P06169 2-563 limits assumed): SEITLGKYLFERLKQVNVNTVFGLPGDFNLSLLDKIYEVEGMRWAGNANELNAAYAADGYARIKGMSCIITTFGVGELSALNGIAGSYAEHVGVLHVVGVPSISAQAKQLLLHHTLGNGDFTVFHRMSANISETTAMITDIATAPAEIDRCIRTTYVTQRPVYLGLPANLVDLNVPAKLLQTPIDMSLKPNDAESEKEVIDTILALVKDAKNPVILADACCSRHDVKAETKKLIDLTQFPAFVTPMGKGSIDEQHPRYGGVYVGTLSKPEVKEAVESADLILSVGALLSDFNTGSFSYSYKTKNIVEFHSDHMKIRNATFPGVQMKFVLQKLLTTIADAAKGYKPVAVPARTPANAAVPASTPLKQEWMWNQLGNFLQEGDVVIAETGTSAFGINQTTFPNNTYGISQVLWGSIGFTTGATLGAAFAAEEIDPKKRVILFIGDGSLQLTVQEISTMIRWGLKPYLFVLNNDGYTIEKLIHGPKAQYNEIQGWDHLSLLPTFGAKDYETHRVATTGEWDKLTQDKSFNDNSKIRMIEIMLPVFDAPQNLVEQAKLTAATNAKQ
Protocol: S. cerevisiae PDC inhibitory activity assay. S. cerevisiae PDC was purchased from Sigma. Its activity was determined by monitoring DCPIP reduction at 600 nm using a microplate reader (CLARIOstar) and conducted as described 1,2 with some modifications. The percentage inhibition of compounds was assayed at a final concentration of 1500 µM. The reaction buffer (50 mM KH 2PO4 and 1 mM MgCl 2, pH 7) contained 300 µM ThDP (or 750 µM in the competition assay), 0.27 mM DCPIP, and 0.15 mg/ml S. cerevisiae PDC. The reaction mixture was preincubated at 37 °C for 60 min, then reaction was initiated by adding pyruvate to a final concentration of 70 mM. Specific activity was calculated using the molar extinction coefficient of DCPIP, 21 mM -1 cm -1.3 […]

[3] = target: T2, porcine PDHc E1 (Sus scrofa, UniProt P29804); experiment: PDHc E1 inhibitory activity assay (DCPIP reduction); assay type: biochemical; conditions: for L.E. (ligand efficiency) PDHc E1: binding energy in kcal mol^–1 derived from the KI value per heavy atom
T2 sequence (P29804 31-390): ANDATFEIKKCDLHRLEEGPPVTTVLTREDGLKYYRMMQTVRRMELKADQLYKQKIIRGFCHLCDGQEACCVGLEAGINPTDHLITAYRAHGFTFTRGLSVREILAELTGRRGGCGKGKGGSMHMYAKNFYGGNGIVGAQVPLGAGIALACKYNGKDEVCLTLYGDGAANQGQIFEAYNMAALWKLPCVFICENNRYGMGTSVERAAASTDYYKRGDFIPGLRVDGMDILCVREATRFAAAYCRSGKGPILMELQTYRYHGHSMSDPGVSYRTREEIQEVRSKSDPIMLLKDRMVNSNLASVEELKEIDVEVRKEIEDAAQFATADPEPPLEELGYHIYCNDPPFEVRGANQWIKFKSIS
Protocol: Enzyme assays – Methods and Results S1
Ligand efficiencies – Calculations S3 […]
Enzyme assays (Methods and Results)
PDHc E1 inhibitory activity assay. Porcine PDHc E1 was purchased from Sigma. Its activity was […]
determined by monitoring 2,6-dichlorophenolindophenol (DCPIP) reduction at 600 nm using a […]
microplate reader (CLARIOstar) and conducted as described 1,2 with some modifications. The percentage inhibition of compounds against porcine PDHc E1 was assayed at a final concentration of 250 µM. The reaction buffer (50 mM KH 2PO4 and 1 mM MgCl 2, pH 7) contained 50 µM ThDP (or 125 µM in the competition assay), 0.25 mM DCPIP, and 2 mg/ml porcine PDHc E1. The reaction mixture […]
was preincubated at 37 °C for 30 min, then the reaction was initiated by adding pyruvate to a final […]
concentration of 50 mM. To determine the half-maximal inhibitory concentration (IC 50 ), ThDP […]
concentration was lowered to 10 µM, and inhibitor concentration was varied (0.4-200 µM). Specific […]
activity was calculated using the molar extinction coefficient of DCPIP, 21 mM -1 cm-1.3 The enzyme […]
IC50 values were calculated from non-linear regression curve fitting using GraphPad Prism.

[4] = [Compound] = 1.5 mM, [ThDP] = 0.3 mM
[5] = increased ThDP: [Compound] = 1500 μM, [ThDP] = 750 μM
[6] = [Compound] = 250 μM, [ThDP] = 50 μM
[7] = increased ThDP: [Compound] = 250 μM, [ThDP] = 125 μM

With `COc1ccc(-c2cn(CCCc3cn(Cc4cnc(C)nc4N)nn3)nn2)cc1` [Compound 17b] the IC50 at 96 h [1] was 90 ± 5 µM, the “Inhibition (%) Yeast PDC” value [2, 4] was “Insoluble” and the “Inhibition (%) Yeast PDC” value [2, 5] was “Insoluble”. The “Inhibition (%) PDHc E1” value [3, 6] was 71 ± 2% and the “Inhibition (%) PDHc E1” value [3, 7] was 45 ± 3%.
With `COc1ccc(-c2cn(CCCCc3cn(Cc4cnc(C)nc4N)nn3)nn2)cc1` [Compound 17c] the IC50 at 96 h [1] was 46 ± 7 µM, the “Inhibition (%) Yeast PDC” value [2, 4] was “Insoluble” and the “Inhibition (%) Yeast PDC” value [2, 5] was “Insoluble”. The Ki [3] was 0.03 µM, the “Inhibition (%) PDHc E1” value [3, 6] was > 90% and the “L.E. (ligand efficiency) PDHc E1” value [3] was 0.34. The “Inhibition (%) PDHc E1” value [3, 7] was 82 ± 4%.
`Cc1ncc(Cn2cc(CCCC(=O)NO)nn2)c(N)n1` [Compound 24b] showed an IC50 at 96 h [1] of 15 ± 3 µM, an inhibition at 1500 µM [2, 4] of 65 ± 2% and an inhibition at 1500 µM [2, 5] of 42 ± 4%. For the same compound, the “Inhibition (%) PDHc E1” value [3, 6] was > 90%, the “L.E. (ligand efficiency) PDHc E1” value [3] was 0.50 and the “Inhibition (%) PDHc E1” value [3, 7] was 70 ± 3%.
For `Cc1ncc(Cn2cc(CCCCC(=O)NO)nn2)c(N)n1` [Compound 24c], the IC50 at 96 h [1] was 44 ± 4 µM, the inhibition at 1500 µM [2, 4] was 63 ± 4% and the inhibition at 1500 µM [2, 5] was 37 ± 4%. For the same compound, the “Inhibition (%) PDHc E1” value [3, 6] was > 90%, the “L.E. (ligand efficiency) PDHc E1” value [3] was 0.48 and the “Inhibition (%) PDHc E1” value [3, 7] was 73 ± 4%.
